In US20160031839A1, “ARGININE […] INHIBITORS AND USES THEREOF” (EPIZYME, INC., priority 2013, published 2016):
Where two headings read alike, the source gives them in different places.

Tests used:
[1] = target: T1, PRMT8 (Homo sapiens, UniProt Q9NR22); assay: PRMT8 Biochemical Assay
T1 construct: Full-length human PRMT8 (NM_019854.4) isoform 1 transcript clone; made in house; host or cells: E. coli BL21(DE3) Gold
Text: Peptide representative of human histone H4 residues 31-45 was synthesized with an N-terminal linker-affinity tag motif and a C-terminal amide cap by 21st Century Biochemicals. The peptide was purified by high-performance liquid chromatography (HPLC) to greater than 95% purity and confirmed by liquid chromatography mass spectrometry (LC-MS). The sequence was Biot-Ahx-[…]-amide (SEQ ID NO.:8).
The resulting construct encodes an N-terminal GST tag and a thrombin cleavage sequence
The column was washed with 50 mM phosphate buffer, 100 mM NaCl, 5% glycerol, 5 mM […], pH 7.8 and PRMT8 was eluted by 100 mM phosphate in the same buffer. Protein was concentrated and buffer was exchanged to 50 mM Tris, 300 mM NaCl, 10% glycerol, 5 mM 3-mercaptoethanol, pH 7.8 by ultrafiltration. The purity of recovered protein was 89%.
General Procedure for PRMT8 Enzyme Assays on Peptide Substrates.
The assays were all performed in a buffer consisting of 20 mM Bicine (pH=7.6), 1 mM TCEP, 0.005% BSG, and 0.002% Tween 20, prepared on the day of use. Compounds in 100% DMSO (1 ul) were spotted into a polypropylene 384-well V-bottom plates (Greiner) using a Platemate Plus outfitted with a 384-channel head (Thermo Scientific). DMSO (1 ul) was added to Columns 11, 12, 23, 24, rows A-H for the maximum signal control and 1 ul of SAH, a known product and inhibitor of PRMT8, was added to columns 11, 12, 23, 24, rows I-P for the minimum signal control. A cocktail (40 ul) containing the PRMT8 enzyme was added by Multidrop Combi (Thermo-Fisher). The compounds were allowed to incubate with PRMT8 for 30 min at room temperature, then a cocktail (10 ul) containing ^3H-SAM and peptide was added to initiate the reaction (final volume=51 ul). The final concentrations of the components were as follows: PRMT8 was 1.5 nM, ^3H-SAM was 50 nM, non-radiolabeled SAM was 550 nM, peptide was 150 nM, SAH in the minimum signal control wells was 1 mM, and the DMSO concentration was 2%. The assays were stopped by the addition of non-radiolabeled SAM (10 ul) to a final concentration of 400 uM, which dilutes the ^3H-SAM to a level where its incorporation into the peptide substrate is no longer detectable. 50 ul of the reaction in the 384-well polypropylene plate was then transferred to a 384-well Flashplate and the biotinylated peptides were allowed to bind to the streptavidin surface for at least 1 hour before being washed once with 0.1% Tween20 in a Biotek ELx405 plate washer. The plates were then read in a PerkinElmer TopCount plate reader to measure the quantity of ^3H-labeled peptide bound to the Flashplate surface, measured as disintegrations per minute (dpm) or alternatively, referred to as counts per minute (cpm).
Where dpm=disintegrations per minute, cmpd=signal in assay well, and min and max are the respective minimum and maximum signal controls.
Where top and bottom are the normally allowed to float, but may be fixed at 100 or 0 respectively in a 3-parameter fit. The Hill Coefficient normally allowed to float but may also be fixed at 1 in a 3-parameter fit. Y is the % inhibition and X is the compound concentration.

[2] = tested on: mono-methyl arginine in RKO cells; assay: RKO Methylation Assay (In Cell Western); format: cell-based; conditions: Homo sapiens, 72 hours
Text: RKO Methylation Assay RKO adherent cells were purchased from ATCC (American Type Culture Collection), Manassas, Va., USA. DMEM/Glutamax medium, penicillin-streptomycin, heat inactivated fetal bovine serum, 0.05% trypsin and D-PBS were purchased from Life Technologies, Grand Island, N.Y., USA. Odyssey blocking buffer, 800CW goat anti-rabbit IgG (H+L) antibody, and Licor Odyssey infrared scanner were purchased from Licor Biosciences, Lincoln, Nebr., USA. Mono-methyl arginine antibody was purchased from Cell Signaling Technology, Danvers, Mass., USA. Methanol was purchased from VWR, Franklin, Mass., USA. 10% Tween 20 was purchased from KPL, Inc., Gaithersburg, Md., USA. DRAQ5 was purchased from Biostatus Limited, Leicestershire, UK. RKO adherent cells were maintained in growth medium (DMEM/Glutamax medium supplemented with 10% v/v heat inactivated fetal bovine serum and 100 units/mL penicillin-streptomycin) and cultured at 37° C. under 5% CO2. Cell Treatment, in Cell Western (ICW) for Detection of Mono-Methyl Arginine and DNA Content. RKO cells were seeded in assay medium at a concentration of 20,000 cells per mL to a poly-D-lysine coated 384 well culture plate (BD Biosciences 356697) with 50 μL per well. Compound (100 nL) from a 96-well source plate was added directly to 384 well cell plate. Plates were incubated at 37° C., 5% CO2 for 72 hours. After three days of incubation, plates were brought to room temperature outside of the incubator for ten minutes and blotted on paper towels to remove cell media. 50 μL of ice cold 100% methanol was added directly to each well and incubated for 30 min at room temperature. After 30 min, plates were transferred to a Biotek EL406 plate washer and washed 2 times with 100 μL per well of wash buffer (1×PBS). Next 60 μL per well of Odyssey blocking buffer (Odyssey Buffer with 0.1% Tween 20 (v/v)) were added to each plate and incubated 1 hour at room temperature. Blocking buffer was removed and 20 μL per well of primary antibody was added (mono-methyl arginine diluted 1:200 in Odyssey buffer with 0.1% Tween 20 (v/v)) and plates were incubated overnight (16 hours) at 4° C. Plates were washed 5 times with 100 μL per well of wash buffer. Next 20 μL per well of secondary antibody was added (1:200 800CW goat anti-rabbit IgG (H+L) antibody, 1:1000 DRAQ5 (Biostatus limited) in Odyssey buffer with 0.1% Tween 20 (v/v)) and incubated for 1 hour at room temperature. The plates were washed 5 times with 100 μL per well wash buffer then 2 times with 100 μL per well of water. Plates were allowed to dry at room temperature then imaged on the Licor Odyssey machine which measures integrated intensity at 700 nm and 800 nm wavelengths. Both 700 and 800 channels were scanned. […] Each plate included fourteen control wells of DMSO only treatment (minimum activation) as well as fourteen control wells for maximum activation treated with 20 μM of a reference compound. The average of the ratio values for each control type was calculated and used to determine the percent activation for each test well in the plate. Reference compound was serially diluted three-fold in DMSO for a total of nine test concentrations, beginning at 20 μM. Percent activation was determined and EC30 curves were generated using triplicate

[3] = Table 2, biochemical evaluation, read-out: PRMT8 IC50 (class)
[4] = Table 2a, numerical, single experiment or average of multiple experiments, read-out: PRMT8 IC50
[5] = numerical, single experiment or average of multiple experiments, read-out: In Cell Western EC30
[6] = read-out: In Cell Western EC30 (class)

T1 sequence (Q9NR22 whole entry, canonical isoform): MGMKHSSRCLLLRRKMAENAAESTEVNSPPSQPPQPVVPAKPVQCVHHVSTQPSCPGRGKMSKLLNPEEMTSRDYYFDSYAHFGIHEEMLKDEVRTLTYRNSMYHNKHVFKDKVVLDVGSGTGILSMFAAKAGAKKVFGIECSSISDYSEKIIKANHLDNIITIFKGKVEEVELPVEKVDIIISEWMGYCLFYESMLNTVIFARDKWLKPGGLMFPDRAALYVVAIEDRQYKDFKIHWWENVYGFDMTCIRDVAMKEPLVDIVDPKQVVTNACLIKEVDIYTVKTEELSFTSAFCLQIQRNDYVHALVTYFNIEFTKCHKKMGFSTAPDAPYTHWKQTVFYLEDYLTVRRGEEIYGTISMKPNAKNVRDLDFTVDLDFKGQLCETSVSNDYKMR

Structure (SMILES)	IC50 [1, 3] [µM]	IC50 [1, 4] [µM]	EC30 [2, 5] [µM]	EC30 [2, 6] [µM]
CN(CCN)Cc1ccnn1-c1ccc(C#N)cc1 [Compound 2, 4-(5-(((2-aminoethyl)(methyl)amino)methyl)-1H-pyrazol-1-yl)benzonitrile]	1.01 to 3	1.3	15.1	≥ 12
CN(CCN)Cc1ncoc1-c1ccc(C#N)cc1 [Compound 1, 4-(4-(((2-aminoethyl)(methyl)amino)methyl)oxazol-5-yl)benzonitrile]	3.01 to 10	1.87	14.2	≥ 12
CN(CCN)Cc1cnnn1-c1ccc(C#N)cc1 [Compound 5, 4-(5-(((2-aminoethyl)(methyl)amino)methyl)-1H-1,2,3-triazol-1-yl)benzonitrile]			> 20	≥ 12
CN(CCN)Cc1oncc1-c1ccc(F)cc1 [Compound 11, N^1-((4-(4-fluorophenyl)isoxazol-5-yl)methyl)-N^1-methylethane-1,2-diamine]	> 10	> 10	> 20	≥ 12
CN(CCN)Cc1[nH]cnc1-c1ccc(C#N)cc1 [Compound 10, 4-(5-(((2-aminoethyl)(methyl)amino)methyl)-1H-imidazol-4-yl)benzonitrile]	3.01 to 10	3.13	> 20	≥ 12
CN(CCN)Cc1n[nH]nc1-c1ccc(C#N)cc1 [Compound 3, 4-(5-(((2-aminoethyl)(methyl)amino)methyl)-2H-1,2,3-triazol-4-yl)benzonitrile]	1.01 to 3	1.55	18.6	≥ 12
CN(CCN)Cc1ocnc1-c1ccc(C#N)cc1 [Compound 4, 4-(5-(((2-aminoethyl)(methyl)amino)methyl)oxazol-4-yl)benzonitrile]	0.101 to 1	0.509	1.41	≤ 3
CN(CCN)Cc1nsnc1-c1ccc(C#N)cc1 [Compound 7, 4-(4-(((2-aminoethyl)(methyl)amino)methyl)-1,2,5-thiadiazol-3-yl)benzonitrile]	0.101 to 1	0.445	> 20	≥ 12
CN(CCN)Cc1ccnn1-c1ccc(Oc2ccccc2)cc1 [Compound 9]	< 0.1	0.0718	2.31	≤ 3
CC(C)Oc1ccc(-n2nccc2CN(C)CCN)cc1 [Compound 8, N^1-((1-(4-isopropoxyphenyl)-1H-pyrazol-5-yl)methyl)-N^1-methylethane-1,2-diamine]	< 0.1	0.0897	1.63	≤ 3
CN(CCN)Cc1cncn1-c1ccc(C#N)cc1 [Compound 6, 4-(5-(((2-aminoethyl)(methyl)amino)methyl)-1H-imidazol-1-yl)benzonitrile]	3.01 to 10	8.21	> 20	≥ 12
